Source: patent publication US20230138177A1 (priority 2020, published 2023)

Assays:
DYRK1B [1] = target: T1, DYRK1B (Homo sapiens, UniProt Q9Y463); type: cell-based; parameters: expressed in transfected cells; host or cells: glioma cells (U87)
DYRK1B [2] = target: T2, DYRK1B (Homo sapiens, UniProt Q9Y463, P333A); type: cell-based
T2 construct: expressed in transfected cells; host or cells: glioma cells (U87)

DYRK1B [3] = target: T1, DYRK1B; type: biochemical; parameters: expressed in transfected cells; host or cells: HEK293T or U87 cells; immunoprecipitate used in vitro; details: FLAG-DYRK1B from cells treated with harmine 10 μM or CX-4945 1 μM for 8 hours
DYRK1B [4] = type: cell-based, human
DYRK1A = type: cell-based, human
HIF2α = type: cell-based, human
VCB-CUL2 complex = type: binding
GSK3β [5] = type: biochemical, human
GSK3β [6] = type: cell-based, human

Sequence of GSK3β (P49841 whole entry): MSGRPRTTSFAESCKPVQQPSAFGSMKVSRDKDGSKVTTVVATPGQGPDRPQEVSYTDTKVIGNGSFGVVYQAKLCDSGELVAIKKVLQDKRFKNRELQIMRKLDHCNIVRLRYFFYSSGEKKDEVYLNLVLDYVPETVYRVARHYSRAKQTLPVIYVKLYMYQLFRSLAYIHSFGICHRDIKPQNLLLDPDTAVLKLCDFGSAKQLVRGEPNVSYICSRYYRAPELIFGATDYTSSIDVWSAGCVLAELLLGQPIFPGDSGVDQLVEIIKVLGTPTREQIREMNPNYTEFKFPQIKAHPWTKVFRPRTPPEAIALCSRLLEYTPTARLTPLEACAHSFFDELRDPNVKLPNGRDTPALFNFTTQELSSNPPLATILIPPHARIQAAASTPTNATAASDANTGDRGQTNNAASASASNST
T1 sequence (Q9Y463 whole entry): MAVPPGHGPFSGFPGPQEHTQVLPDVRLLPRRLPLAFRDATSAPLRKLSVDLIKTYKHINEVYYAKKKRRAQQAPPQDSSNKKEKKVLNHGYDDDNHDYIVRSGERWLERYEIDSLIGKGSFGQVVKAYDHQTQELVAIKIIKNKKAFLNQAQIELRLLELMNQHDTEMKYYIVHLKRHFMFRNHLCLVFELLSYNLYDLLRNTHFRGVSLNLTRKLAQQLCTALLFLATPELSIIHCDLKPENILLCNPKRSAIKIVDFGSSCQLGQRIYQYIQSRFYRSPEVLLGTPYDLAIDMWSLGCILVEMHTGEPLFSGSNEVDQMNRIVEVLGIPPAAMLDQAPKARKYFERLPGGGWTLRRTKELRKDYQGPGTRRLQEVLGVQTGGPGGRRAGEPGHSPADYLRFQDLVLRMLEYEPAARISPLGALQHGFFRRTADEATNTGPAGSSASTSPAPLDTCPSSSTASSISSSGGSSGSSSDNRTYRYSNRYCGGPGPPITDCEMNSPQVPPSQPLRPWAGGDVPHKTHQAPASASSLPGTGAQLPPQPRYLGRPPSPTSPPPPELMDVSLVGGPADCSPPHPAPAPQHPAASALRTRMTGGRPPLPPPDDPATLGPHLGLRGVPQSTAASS
T2 sequence (Q9Y463 whole entry P333A): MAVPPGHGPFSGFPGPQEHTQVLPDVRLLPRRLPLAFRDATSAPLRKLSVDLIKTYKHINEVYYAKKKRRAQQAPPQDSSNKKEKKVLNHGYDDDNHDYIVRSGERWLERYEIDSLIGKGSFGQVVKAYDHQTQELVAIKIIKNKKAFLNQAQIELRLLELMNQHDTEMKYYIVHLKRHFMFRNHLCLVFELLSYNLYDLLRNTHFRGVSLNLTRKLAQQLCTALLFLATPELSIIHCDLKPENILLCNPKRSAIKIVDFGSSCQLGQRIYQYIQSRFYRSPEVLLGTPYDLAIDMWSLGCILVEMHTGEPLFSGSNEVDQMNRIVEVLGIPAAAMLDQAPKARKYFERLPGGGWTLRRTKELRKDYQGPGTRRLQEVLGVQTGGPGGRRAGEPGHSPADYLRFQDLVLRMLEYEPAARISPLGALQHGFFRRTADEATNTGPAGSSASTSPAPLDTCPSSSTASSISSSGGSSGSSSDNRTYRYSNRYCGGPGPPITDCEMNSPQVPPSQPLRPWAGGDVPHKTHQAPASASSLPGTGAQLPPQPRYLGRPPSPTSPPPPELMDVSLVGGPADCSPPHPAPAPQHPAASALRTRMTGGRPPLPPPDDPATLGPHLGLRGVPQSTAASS

Row | Compound | prolyl hydroxylation of DYRK1B (DYRK1B [1]) | tyrosine autophosphorylation of DYRK1B (DYRK1B [1]) | prolyl hydroxylation of DYRK1B-P333A (DYRK1B [2]) | tyrosine auto-phosphorylation of DYRK1B-P333A (DYRK1B [2]) | phosphorylation of the ID2-T27 substrate (DYRK1B [3]) | prolyl hydroxylation of DYRK1B (DYRK1B [4]) | tyrosine autophosphorylation of DYRK1B (DYRK1B [4]) | prolyl hydroxylation of DYRK1A (DYRK1A) | tyrosine autophosphorylation of DYRK1A (DYRK1A) | proline hydroxylation on HIF2-α (HIF2α) | prolyl-hydroxylation of HIF2α (HIF2α) | proline hydroxylation on DYRK1 kinase (DYRK1B [1]) | prolyl hydroxylation of DYRK4 (DYRK4) | tyrosine autophosphorylation of DYRK4 (DYRK4) | ID2-mediated dissociation of CUL2 from VCB (VCB-CUL2 complex) | VHL-HIF2α interaction (VCB-CUL2 complex) | GSK3β-mediated phosphorylation of GST-c-MYC (GSK3β [5]) | prolyl hydroxylation of GSK3β (GSK3β [6]) | tyrosine autophosphorylation of GSK3β (GSK3β [6])
1 | COC(=O)CNC(=O)C(=O)OC [DMOG, dimethyloxalylglycine] | caused loss | caused loss | caused loss | caused loss |  |  |  |  |  |  |  |  |  |  |  |  |  |  | 
2 | COc1ccc2c(c1)[nH]c1c(C)nccc12 [harmine] | failed to perturb | severely impairing |  |  | severely impairing |  |  |  |  |  |  |  |  |  |  |  |  |  | 
3 | CoCl2 | caused loss | caused loss |  |  |  | abolished | abolished | abolished | abolished | complete elimination | prevented | complete elimination | caused loss | caused loss | elicited | disrupted | abolished | caused loss | caused loss
